Like-named read-outs stand apart in the source and are kept apart here.
Experiments:
[1] = system: African green monkey kidney fibroblast (Vero cells); assay: Cytotoxicity by sulforhodamine B (SRB) colorimetric assay; type: cell-based; conditions: Vero CC50 / P. falciparum 3D7 IC50
Source text: (§1) A cytotoxicity test of selected analogs against African green monkey kidney fibroblast (Vero cells) was obtained from Bioassay Laboratory, BIOTEC, NSTDA, Thailand. They were maintained continuously in MEM/EBSS medium (Hyclone Laboratories Inc., South Logan, UT, USA), supplemented with 10% heated fetal bovine serum (GE Healthcare, PAA Laboratories GmbH, Pasching, Austria), 2.2 g/L Sodium bicarbonate (Emsure, Merck kGaA, Darmstadt, Germany), and 1% sodium pyruvate (Sigma). […] Then, the cells were fixed with 100 µL of 10% trichloroacetic acid (Sigma) at 4 °C for 45 min, washed, and dried at room temperature overnight. […] Finally, 200 µL of 10× Tris-base was added to each well to dissolve protein-bound dye. The OD was determined at a wavelength of 510 nm. The control media was used for overall background subtraction as 0% and untreated cells as 100% control without any cytotoxic effect. The IC50 value of each compound was determined from the dose–response curve.

[2] = as above; type: cell-based, African green monkey; conditions: African green monkey, Vero cells (kidney fibroblasts); Vero cells, 72 h, SRB, mean ± SD of three repeats
Source text: as §1

[3] = system: P. falciparum 3D7; assay: In vitro blood antimalarial activity, malaria SYBR green I-based fluorescence (MSF) method; type: cell-based; conditions: Plasmodium falciparum; P. falciparum 3D7, blood stage, 48 h, mean ± SD of three biological repeats
Protocol: P. falciparum strain 3D7 (wild-type drug sensitive strain) was used in this study. This parasite was maintained continuously in vitro in human O+ erythrocytes (4% hematocrit) at 37 °C under 3% CO2 and 90% N2 in RPMI 1640 culture media (Life Technologies Limited, Paisley, UK) containing 2 mM L-Glutamine, 25 mM HEPES (Sigma), pH 7.4, 2g/L NaHCO3, 40 mg/L gentamicin, 0.37 mM hypoxanthine, and supplemented with 5 g/L Albumax I (Life Technologies, Grand Island, NY, USA). Every 3 to 4 days, the parasite culture was synchronized with 5% sorbitol and transferred into complete medium with uninfected erythrocytes. In vitro antimalarial activity was determined by using the malaria SYBR green I-based fluorescence (MSF) method. Briefly, 0.09 mL of cultured 1% ring-stage synchronized parasites and 2% hematocrit were transferred to individual wells of a standard 96-well microtiter plate and in vitro culture continued for 48 h, with 0.01 mL of compound at different concentration in each well. The compounds were first dissolved in DMSO and diluted with RPMI medium to 1% DMSO. The final concentration of DMSO in each well was 0.1%, which caused no effect on the parasite viability. Following 48 h, SYBR Green I solution (0.02 µL of 10,000X SYBR Green I/100 µL of buffer solution consisted of 20 mM Tris 20, pH 7.5, 5 mM EDTA, 0.008% w/v saponin and 0.08% v/v Triton X-100) was then added to each well, and fluorescence signals were measured by spectrofluorometer at ex485/em 535 nm. […] The result of each compound was normalized with control media for the overall background subtraction as 0% and untreated parasite with 0.1% DMSO as 100% control.

[4] = system: hematin polymerization; assay: Inhibition of hematin polymerization (heme polymerization assay); type: biochemical;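 for %Inh1: test concentrations in µM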;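 for %Inh2: test concentrations in µM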;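 for %Inh3: test concentrations in µM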
Protocol: The ability of the 5-phenoxy primaquine analogs to inhibit hematin polymerization was investigated using a protocol modified from the one described previously. […] After it was left standing for 15 min, Tween 20 (0.5 μM; Sigma) was added. […] The assay was performed in triplicate, and results were expressed as the percentage of inhibition relative to hemozoin formation in a negative control. The IC50 values were obtained from the sigmoidal dose–response curves using nonlinear regression curve fitting analyses with GraphPad Prism version 3.00 software. Each IC50 value is the result of at least three separate experiments.

[5] = pH 5.0, mean ± SD of three independent repeats, read-out: IC50, inhibition of hemozoin-initiated hematin polymerization
[6] = primary data, repeat 1, read-out: IC50, heme polymerization inhibition, repeat 1
[7] = primary data, repeat 2, read-out: IC50, heme polymerization inhibition, repeat 2
[8] = primary data, repeat 3, read-out: IC50, heme polymerization inhibition, repeat 3

COc1cc(NC(C)CCCN)c2ncccc2c1Oc1ccc(Br)cc1 (stereo not shown) [7c, N^4-(5-(4-Bromophenoxy)-6-methoxyquinolin-8-yl) pentane-1,4-diamine]
SI, selectivity index = CC50 on Vero cells / IC50 in the blood stage [1]: 6.00
CC50 at 72 h [2]: 42.2 ± 3.25 µM
IC50 [3]: 7.03 ± 1.31 µM
%Inh1 ([4]; conc 2, repeat 1): 7.63%
%Inh2 ([4]; conc 2, repeat 2): 6.63%
%Inh3 ([4]; conc 2, repeat 3): 1.36%
%Inh1 ([4]; conc 10, repeat 1): 8.52%
%Inh2 ([4]; conc 10, repeat 2): 5.82%
%Inh3 ([4]; conc 10, repeat 3): 7.32%
%Inh1 ([4]; conc 50, repeat 1): 12.67%
%Inh2 ([4]; conc 50, repeat 2): 18.23%
%Inh3 ([4]; conc 50, repeat 3): 10.74%
%Inh1 ([4]; conc 100, repeat 1): 31.46%
%Inh2 ([4]; conc 100, repeat 2): 32.12%
%Inh3 ([4]; conc 100, repeat 3): 38.23%
%Inh1 ([4]; conc 200, repeat 1): 63.35%
%Inh2 ([4]; conc 200, repeat 2): 63.64%
%Inh3 ([4]; conc 200, repeat 3): 61.57%
%Inh1 ([4]; conc 400, repeat 1): 90.44%
%Inh2 ([4]; conc 400, repeat 2): 88.93%
%Inh3 ([4]; conc 400, repeat 3): 90.95%
IC50 [4, 5]: 175 ± 4.3 µM
IC50 [4, 6]: 170 µM
IC50 [4, 7]: 181 µM
IC50 [4, 8]: 175 µM

COc1cc(NC(C)CCCN)c2ncccc2c1Oc1ccc(C(N)=O)cc1 (stereo not shown) [7h, 4-((8-((5-Aminopentan-2-yl)amino)-6-methoxyquinolin-5-yl)oxy)benzamide]
SI, selectivity index = CC50 on Vero cells / IC50 in the blood stage [1]: >7.41
CC50 at 72 h [2]: > 100 µM
IC50 [3]: 13.5 ± 1.57 µM
%Inh1 ([4]; conc 2, repeat 1): 6.92%
%Inh2 ([4]; conc 2, repeat 2): 2.87%
%Inh3 ([4]; conc 2, repeat 3): 14.16%
%Inh1 ([4]; conc 10, repeat 1): 8.33%
%Inh2 ([4]; conc 10, repeat 2): 17.48%
%Inh3 ([4]; conc 10, repeat 3): 18.60%
%Inh1 ([4]; conc 50, repeat 1): 22.32%
%Inh2 ([4]; conc 50, repeat 2): 30.21%
%Inh3 ([4]; conc 50, repeat 3): 30.28%
%Inh1 ([4]; conc 100, repeat 1): 39.91%
%Inh2 ([4]; conc 100, repeat 2): 44.86%
%Inh3 ([4]; conc 100, repeat 3): 40.80%
%Inh1 ([4]; conc 200, repeat 1): 66.71%
%Inh2 ([4]; conc 200, repeat 2): 77.84%
%Inh3 ([4]; conc 200, repeat 3): 84.25%
%Inh1 ([4]; conc 400, repeat 1): 87.23%
%Inh2 ([4]; conc 400, repeat 2): 92.60%
%Inh3 ([4]; conc 400, repeat 3): 103.26%
IC50 [4, 5]: 154 ± 6.4 µM
IC50 [4, 6]: 154 µM
IC50 [4, 7]: 162 µM
IC50 [4, 8]: 146 µM

COc1cc(NC(C)CCCN)c2ncccc2c1Oc1ccc(Cl)cc1 (stereo not shown) [7d, N^4-(6-Methoxy-5-(4-chlorophenoxy)quinolin-8-yl)pentane-1,4-diamine]
SI, selectivity index = CC50 on Vero cells / IC50 in the blood stage [1]: 5.66
CC50 at 72 h [2]: 46.4 ± 5.68 µM
IC50 [3]: 8.2 ± 0.83 µM
%Inh1 ([4]; conc 2, repeat 1): 7.78%
%Inh2 ([4]; conc 2, repeat 2): 6.26%
%Inh3 ([4]; conc 2, repeat 3): 2.78%
%Inh1 ([4]; conc 10, repeat 1): 12.08%
%Inh2 ([4]; conc 10, repeat 2): 17.37%
%Inh3 ([4]; conc 10, repeat 3): 9.55%
%Inh1 ([4]; conc 50, repeat 1): 28.15%
%Inh2 ([4]; conc 50, repeat 2): 20.53%
%Inh3 ([4]; conc 50, repeat 3): 25.95%
%Inh1 ([4]; conc 100, repeat 1): 39.02%
%Inh2 ([4]; conc 100, repeat 2): 49.70%
%Inh3 ([4]; conc 100, repeat 3): 40.32%
%Inh1 ([4]; conc 200, repeat 1): 81.92%
%Inh2 ([4]; conc 200, repeat 2): 79.27%
%Inh3 ([4]; conc 200, repeat 3): 75.78%
%Inh1 ([4]; conc 400, repeat 1): 96.57%
%Inh2 ([4]; conc 400, repeat 2): 99.33%
%Inh3 ([4]; conc 400, repeat 3): 91.32%
IC50 [4, 5]: 132 ± 5.3 µM
IC50 [4, 6]: 135 µM
IC50 [4, 7]: 125 µM
IC50 [4, 8]: 137 µM

COc1cc(NC(C)CCCN)c2ncccc2c1Oc1ccccc1 (stereo not shown) [7a, N^4-(6-Methoxy-5-phenoxyquinolin-8-yl)pentane-1,4-diamine]
SI, selectivity index = CC50 on Vero cells / IC50 in the blood stage [1]: 10.27
CC50 at 72 h [2]: 37.5 ± 5.24 µM
IC50 [3]: 3.65 ± 0.39 µM
%Inh1 ([4]; conc 2, repeat 1): 0.76%
%Inh2 ([4]; conc 2, repeat 2): 8.32%
%Inh3 ([4]; conc 2, repeat 3): 5.77%
%Inh1 ([4]; conc 10, repeat 1): 4.28%
%Inh2 ([4]; conc 10, repeat 2): 12.65%
%Inh3 ([4]; conc 10, repeat 3): 9.75%
%Inh1 ([4]; conc 50, repeat 1): 19.81%
%Inh2 ([4]; conc 50, repeat 2): 31.60%
%Inh3 ([4]; conc 50, repeat 3): 24.35%
%Inh1 ([4]; conc 100, repeat 1): 50.68%
%Inh2 ([4]; conc 100, repeat 2): 59.92%
%Inh3 ([4]; conc 100, repeat 3): 49.55%
%Inh1 ([4]; conc 200, repeat 1): 89.17%
%Inh2 ([4]; conc 200, repeat 2): 88.25%
%Inh3 ([4]; conc 200, repeat 3): 88.23%
%Inh1 ([4]; conc 400, repeat 1): 101.81%
%Inh2 ([4]; conc 400, repeat 2): 100.63%
%Inh3 ([4]; conc 400, repeat 3): 95.73%
IC50 [4, 5]: 102 ± 4.1 µM
IC50 [4, 6]: 105 µM
IC50 [4, 7]: 96 µM
IC50 [4, 8]: 104 µM
